This is an account of results in patent US4039384A, “Creatinine amidohydrolase and creatine amidinohydrolase and process for producing them” (Noda Institute for Scientific Research, priority 1975, dated 1977).

By inhibition is commonly meant the drop in the measured response relative to a control, in per cent.

Where two headings read alike, the source gives them in different places.

Experiment [1] has as its target T1, creatine amidinohydrolase of this invention (from Flavobacterium U-188, Micrococcus luteus ATCC 398 or Corynebacterium U-41) (Flavobacterium sp. U-188, UniProt P19213).
T1 sequence (P19213 1-403): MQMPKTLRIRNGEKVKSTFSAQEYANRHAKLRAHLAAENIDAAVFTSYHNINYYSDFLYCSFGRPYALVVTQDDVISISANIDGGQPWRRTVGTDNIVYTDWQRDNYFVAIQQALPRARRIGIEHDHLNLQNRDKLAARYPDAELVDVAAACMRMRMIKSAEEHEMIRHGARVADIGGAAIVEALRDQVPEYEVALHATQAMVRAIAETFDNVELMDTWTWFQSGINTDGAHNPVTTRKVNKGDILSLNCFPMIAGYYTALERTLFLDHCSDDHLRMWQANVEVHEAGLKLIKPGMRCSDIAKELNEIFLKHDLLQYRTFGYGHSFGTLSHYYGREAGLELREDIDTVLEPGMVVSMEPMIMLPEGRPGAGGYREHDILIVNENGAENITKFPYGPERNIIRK
The experiment can be described thus: Creatine amidinohydrolase activity, enzyme of this invention. The experiment is classed as biochemical. The method, then:
This enzyme has an ability to hydrolyze creatine into urea and sarcosine. […] 2.
To 0.8 ml of 0.1 M creatine solution are added 0.1 of 0.3 M phosphate buffer (pH 7.7) and 0.1 ml of a solution of this enzyme having an appropriate concentration, and the resulting mixture is reacted at 37° C. for 10 minutes. Then, 2 ml of 2% (W/V) p-dimethylaminobenzaldehyde solution (prepared by dissolving 2 g of p-dimethylaminobenzaldehyde into 100 ml of 99.5% ethanol, adding 15 ml of concentrated hydrochloric acid and diluting the mixture with distilled water to a 2 times greater quantity) is added, and the resulting mixture is allowed to stand at 25° C. for 30 minutes. Then, its absorbance (O. D. value) at 435 mμ is measured with photoelectric colorimeter. […] The quantity of enzyme necessary for producing 1 micromole of urea per one minute at 37° C. is taken as one unit.

The target in experiment [2] is T2, creatine amidinohydrolase of prior art (i) (Journal of General Microbiology, Vol. 14, pp. 351 to 365 (1956); Genus Pseudomonas) (Pseudomonas putida, UniProt P38488).
T2 sequence (P38488 1-403): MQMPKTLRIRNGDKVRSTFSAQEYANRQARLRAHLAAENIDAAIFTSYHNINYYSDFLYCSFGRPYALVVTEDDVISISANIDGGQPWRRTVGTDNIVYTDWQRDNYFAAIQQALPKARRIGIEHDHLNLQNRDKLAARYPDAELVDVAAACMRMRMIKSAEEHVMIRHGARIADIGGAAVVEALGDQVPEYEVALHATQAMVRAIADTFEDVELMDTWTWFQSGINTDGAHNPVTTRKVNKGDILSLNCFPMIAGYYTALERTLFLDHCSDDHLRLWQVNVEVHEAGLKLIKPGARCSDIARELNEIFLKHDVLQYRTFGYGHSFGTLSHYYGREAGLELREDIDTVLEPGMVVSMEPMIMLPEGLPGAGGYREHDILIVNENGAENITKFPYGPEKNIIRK
The following applies: cited from earlier work.

[3] abbreviates: inhibitor final concentration 2 × 10^-2 M.
The mark [4] stands for this setting: inhibitor final concentration 5 × 10^-2 M, pH 9.1.

On to `O=C(O)CI` [Iodoacetate], for which the inhibition at 10000 µM in experiment [1] (read-out: Percentage inhibition of creatine removal) was found to be 0%. Further, the “Percentage inhibition of creatine removal” value (“Percentage inhibition” for short) in experiment [2] (inhibitor final concentration 10^-2 M) is recorded as 20%.
Take `[N-]=[N+]=[N-]` [Azide]: the “Percentage inhibition” value in experiment [1] (setting [3]) is listed as 0%; in experiment [2] (setting [3]), 18%.
Borate: the “Percentage inhibition” value in experiment [1] (setting [4]) is 40%; in experiment [2] (setting [4]), 80%.
